Test results: patent US12023345B2, “Compositions and methods for treating lysosomal disorders” (RUSH UNIVERSITY MEDICAL CENTER, priority 2014, dated 2024)

Tests used:
[1] = test system: Tfeb; experiment: TFEB mRNA by semi-quantitative RT-PCR in mouse primary astrocytes; type: cell-based; settings: different concentrations, 5 hr, serum-free
Description: Semi-Quantitative Reverse Transcriptase-Coupled Polymerase Chain Reaction (RT-PCR): Total RNA was isolated from mouse primary astrocytes and human primary astrocytes using RNA-Easy Qiagen (Valencia, CA) kit following manufactures protocol. Semi-quantitative RTPCR was carried out as described earlier (28) using oligo (dT) 12-18 as primer and moloney murine leukemia virus reverse transcriptase (MMLV-RT, Invitrogen) in a 20 μl reaction mixture. The resulting cDNA was appropriately amplified using Promega Master Mix (Madison, WI) and the following primers (Invitrogen) for murine genes: […]
Amplified products were electrophoresed on 2% agarose (Invitrogen) gels and visualized by ethidium bromide (Invitrogen) staining. Glyceraldehyde-3-phosphate dehydrogenase (Gapdh) mRNA was used as a loading control to ascertain that an equivalent amount of cDNA was synthesized from each sample.
Mouse primary astrocytes were incubated with different concentrations (see FIG. 9) of simvastatin and pravastatin (A), (B), cinnamic acid (C), and sodium phenylbutyrate and sodium benzoate (D) for 5 hr. under serum-free condition followed by monitoring the mRNA expression of TFEB by semi-quantitative RT-PCR. Sodium formate (D) was used as a negative control for sodium phenylbutyrate and sodium benzoate.

[2] = test system: TPP1; experiment: TPP1 protein by Western blot in primary mouse astrocytes; type: cell-based
Description: (§1) 12(A) Cells were treated with different concentrations of aspirin for 24 h under serum-free condition followed by Western blot for TPP1. 12(B) Cells were treated with 5 μM aspirin for different time periods under serum-free condition followed by Western blot for TPP1. Actin was run as a house keeping molecule. 12(C) Cells were treated with different concentrations of aspirin for 24 h under serum-free condition followed by TPP1 activity assay using cell extract containing 5 μg of total protein and Ala-Ala-Phe 7-amido-4-methylcoumarin as substrate. Results represent three independent experiments.
Immunoblotting: Western blotting was conducted as described earlier (31, 32) with modifications. Briefly, cells were scraped in 1× RIPA buffer, protein was measured using Bradford reagent and sodium dodecyl sulfate (SDS) buffer was added and electrophoresed on NuPAGE® Novex® 4-12% Bis-Tris gels (Invitrogen) and proteins transferred onto a nitrocellulose membrane (Bio-Rad) using the Thermo-Pierce Fast Semi-Dry Blotter.

[3] = molecular target: T1, PPARα (Mus musculus, UniProt P23204); experiment: Electrophoretic mobility shift assay of DNA-binding activity of PPARα; type: cell-based; settings: astrocytes, 5 μM aspirin, different min intervals
T1 construct: endogenous in cells; host or cells: primary mouse astrocytes (nuclear extracts)
T1 sequence (P23204 1-468): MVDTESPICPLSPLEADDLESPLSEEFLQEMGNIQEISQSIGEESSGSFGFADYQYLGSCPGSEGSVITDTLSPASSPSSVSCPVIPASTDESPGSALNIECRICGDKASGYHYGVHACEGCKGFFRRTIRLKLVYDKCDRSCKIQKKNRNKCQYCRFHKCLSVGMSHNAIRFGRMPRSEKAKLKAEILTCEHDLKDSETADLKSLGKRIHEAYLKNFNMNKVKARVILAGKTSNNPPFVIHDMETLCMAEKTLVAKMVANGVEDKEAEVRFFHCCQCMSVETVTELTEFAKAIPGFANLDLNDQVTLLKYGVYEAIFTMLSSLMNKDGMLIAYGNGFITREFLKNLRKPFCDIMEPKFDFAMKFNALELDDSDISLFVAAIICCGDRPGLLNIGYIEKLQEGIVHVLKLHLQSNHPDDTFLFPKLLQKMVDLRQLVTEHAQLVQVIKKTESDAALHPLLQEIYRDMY
T1 sequence (P28700 1-467 partner): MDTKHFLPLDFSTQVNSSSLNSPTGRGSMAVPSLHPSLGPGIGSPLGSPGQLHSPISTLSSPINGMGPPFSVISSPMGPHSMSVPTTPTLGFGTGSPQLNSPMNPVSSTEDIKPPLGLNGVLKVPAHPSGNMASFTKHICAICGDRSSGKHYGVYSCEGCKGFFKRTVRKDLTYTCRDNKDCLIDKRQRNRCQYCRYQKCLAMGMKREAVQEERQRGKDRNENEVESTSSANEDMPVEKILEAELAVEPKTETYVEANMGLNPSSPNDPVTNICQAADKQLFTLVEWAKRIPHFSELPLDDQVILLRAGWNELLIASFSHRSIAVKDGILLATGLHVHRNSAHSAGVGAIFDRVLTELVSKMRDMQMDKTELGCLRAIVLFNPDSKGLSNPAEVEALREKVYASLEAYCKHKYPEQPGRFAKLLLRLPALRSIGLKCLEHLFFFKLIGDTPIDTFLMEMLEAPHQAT
Description: FIG. 14(A)-(B) illustrates activation of PPARα by aspirin in primary mouse astrocytes. 14(A) Cells were treated with 5 μM aspirin for different min intervals followed by isolation of nuclear extracts and electrophoretic mobility shift assay for monitoring DNA-binding activity of PPARα using PPARα-binding site of the Tfeb promoter as a probe. 14(B) Astrocytes isolated from wild type, PPARα (−/−) and PPARβ (−/−) mice were transfected with PPAR luciferase reporter (PPRE-x3-TK-luc) plasmid and after 24 h of transfection, cells were stimulated with different doses of aspirin. After 4 h, firefly luciferase activity was measured in total cell extracts. Results are mean +SD of three different experiments. ^ap<0.001 vs control.

[4] = at high doses; cited from earlier work
[5] = test system: mouse primary astrocytes; experiment: LysoTracker staining of mouse primary astrocytes (lysosomal biogenesis); type: cell-based; settings: 24 h
Description: [The procedure below names another cell line; the source lists this cell line under the same test.] LysoTracker Staining: Fibroblasts cultured to 70-80% confluence were subjected to different stimuli under reduced serum (2%) DMEM medium followed by incubation with 75 nM LysoTracker Red DND99 (Invitrogen) for 45 mins. Cells were then washed thoroughly with filtered PBS and mounted on glass slides and viewed under BX41 fluorescence microscope

[6] = test system: TPP1; experiment: TPP1 activity assay on cell extract of primary mouse astrocytes; type: cell-based; settings: 24 h
Description: as §1

CC(=O)Oc1ccccc1C(=O)O [aspirin]
TFEB mRNA expression (semi-quantitative RT-PCR) [1]: upregulation of TFEB mRNA expression
earliest time at which increase in TPP1 protein was evident ([2]; 5 μM aspirin): 2 h
time of maximum increase in TPP1 protein ([2]; 5 μM aspirin): 12 h
TPP1 protein (Western blot), dose ([2]; aspirin 2 and 5 μM, 24 h): increase in TPP1 protein
DNA-binding activity of PPARα (EMSA) [3]: time-dependent increase in PPARα activation
toxic effects [4]: gastric ulcers, stomach bleeding, and tinnitus
lysosomal biogenesis (lyso-tracker staining) ([5]; PPARα (−/−) astrocytes, 5 μM aspirin): not PPARα (−/−)
lysosomal biogenesis (lyso-tracker staining) ([5]; PPARβ (−/−) astrocytes, 5 μM aspirin): increased lysosomal biogenesis
lysosomal biogenesis (lyso-tracker staining) ([5]; WT astrocytes, 5 μM aspirin): increased lysosomal biogenesis
lysosomal biogenesis (lyso-tracker staining) ([5]; astrocytes, aspirin 10 μM, serum-free): not very potent in increasing lysosomal biogenesis
lysosomal biogenesis (lyso-tracker staining) ([5]; astrocytes, aspirin 2 and 5 μM, serum-free): markedly increased lysosomal biogenesis
TPP1 activity ([6]; aspirin 10 μM): not 10 μM
TPP1 activity ([6]; aspirin 2 and 5 μM): increase in TPP1 activity
